Measurements from US11058745B1, “Stable liquid pharmaceutical compositions of daptomycin” (JNF LLC., priority 2018, dated 2021).

Assay: Chemical stability of daptomycin formulations on storage (daptomycin peak purity, anhydrodaptomycin impurity)
Assay type: physicochemical
Settings: with only propylene glycol, 2-8° C.
Description: For purposes of the present invention, “stable” or “substantially stable” with respect to liquid daptomycin compositions shall be understood to mean compositions having less than about 5% anhydrodaptomycin impurity compared to a reference standard and/or having a peak purity of at least about 95% after 1 month at room temperature or 12 months at refrigerated temperatures of from about 2 to about 8° C. Impurity and peak purity calculated based on integration of major impurity anhydrodaptomycin and daptomycin peaks only and minor impurities not accounted for calculations.
Note: Impurities presented here represent increase compared to standard injections. The peak at RRT of about 1.12 (Anhydrodaptomycin) is major impurity that increases over the time. The same impurity is also present in standard injections to the extent of 0.6 to 0.8%. Here onwards, impurity means it is Anhydrodaptomycin and peak purity refers to area percentage of Daptomycin, when only two peaks are integrated, Daptomycin and Anhydrodaptomycin.
Note: Impurities presented here represent increase compared to standard injections. The peak at RRT 1.12 (Anhydrodaptomycin) is major impurity that increases over the time. The same impurity is also present in standard injections to the extent of 0.6 to 0.8%.

## CCCCCCCCCC(=O)N[C@@H](Cc1c[nH]c2ccccc12)C(=O)N[C@H](CC(N)=O)C(=O)N[C@@H](CC(=O)O)C(=O)N[C@@H]1C(=O)NCC(=O)N[C@@H](CCCN)C(=O)N[C@@H](CC(=O)O)C(=O)N[C@H](C)C(=O)N[C@@H](CC(=O)O)C(=O)NCC(=O)N[C@H](CO)C(=O)N[C@@H]([C@H](C)CC(=O)O)C(=O)N[C@@H](CC(=O)c2ccccc2N)C(=O)O[C@@H]1C [Daptomycin]
  stable up to (time): up to 1 month
